Series [1] deals with 5-hydroxytryptamine receptor 5A (Homo sapiens) (UniProt P47898). Kind of series: Activity against 5HT5A/H in the Eurofins SafetyScreen44 (BI) by Radioactive Assay (Old_Cerep_2). The note with it: Compound concentration 10.0 uM.
In series [2] the target is Cathepsin G (Homo sapiens, UniProt P08311). Kind of series: CTSG inhibition assay.
Series [3] concerns the target Sodium-dependent serotonin transporter (Homo sapiens) (UniProt P31645). Kind of series: Activity against 5HTTRANS/H in the Eurofins SafetyScreen44 (BI) by Radioactive Assay (Old_Cerep_4). The note with it: Compound concentration 10.0 uM.
Series [4] has as its target Adrenergic receptor alpha-2 (Rattus norvegicus) (UniProt P22086+P19328+P22909). Nature of the series: Inhibitor of ALPHA2/NS/R in the Eurofins SafetyScreen44 (BI) by Radioactive Assay (Old_Cerep_6). In kind it is protein assay.
Series [5] addresses Platelet-derived growth factor receptor (Mus musculus) (UniProt P05622+P26618). Kind of series: Activity against PDGF/M in the Eurofins SafetyScreen44 (BI) (Old_Cerep_33). As to conditions: Compound concentration 10.0 uM. The format is protein-complex assay.
Series [6] deals with Calcitonin-gene-related peptide receptor, CALCRL/RAMP1 (Homo sapiens) (UniProt O60894+Q16602). Nature of the series: Agonist activity in the Eurofins SafetyScreen44 (BI) against CGRP/H by Scintillation counting (Old_Cerep_15). In kind it is protein-complex assay.
The target in series [7] is Pituitary adenylate cyclase-activating polypeptide type I receptor (Homo sapiens) (UniProt P41586). Nature of the series: Activity against PACAP/HU in the Eurofins SafetyScreen44 (BI) by Radioactive Assay (Old_Cerep_31). As to conditions: Compound concentration 10.0 uM.
Sequence of Pituitary adenylate cyclase-activating polypeptide type I receptor (Homo sapiens) (P41586 21-468 limits assumed): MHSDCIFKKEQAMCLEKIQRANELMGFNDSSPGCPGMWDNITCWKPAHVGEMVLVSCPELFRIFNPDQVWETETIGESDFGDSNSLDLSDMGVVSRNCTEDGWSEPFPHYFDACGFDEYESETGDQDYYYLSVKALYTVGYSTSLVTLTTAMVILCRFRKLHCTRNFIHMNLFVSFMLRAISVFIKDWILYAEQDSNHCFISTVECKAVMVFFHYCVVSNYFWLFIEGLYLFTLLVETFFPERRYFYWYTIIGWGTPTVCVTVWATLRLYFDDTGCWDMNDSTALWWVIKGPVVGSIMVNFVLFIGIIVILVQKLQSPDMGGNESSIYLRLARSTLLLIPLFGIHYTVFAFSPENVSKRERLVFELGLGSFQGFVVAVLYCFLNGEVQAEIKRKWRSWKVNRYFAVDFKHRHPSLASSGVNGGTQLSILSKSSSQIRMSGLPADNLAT
In series [8] the target is Neurotensin receptor type 1 (Homo sapiens) (UniProt P30989). Nature of the series: Activity against NT1/H in the Eurofins SafetyScreen44 (BI) by Radioactive Assay (Old_Cerep_27). As to conditions: Compound concentration 10.0 uM.
Sequence of Neurotensin receptor type 1 (Homo sapiens) (P30989 whole entry): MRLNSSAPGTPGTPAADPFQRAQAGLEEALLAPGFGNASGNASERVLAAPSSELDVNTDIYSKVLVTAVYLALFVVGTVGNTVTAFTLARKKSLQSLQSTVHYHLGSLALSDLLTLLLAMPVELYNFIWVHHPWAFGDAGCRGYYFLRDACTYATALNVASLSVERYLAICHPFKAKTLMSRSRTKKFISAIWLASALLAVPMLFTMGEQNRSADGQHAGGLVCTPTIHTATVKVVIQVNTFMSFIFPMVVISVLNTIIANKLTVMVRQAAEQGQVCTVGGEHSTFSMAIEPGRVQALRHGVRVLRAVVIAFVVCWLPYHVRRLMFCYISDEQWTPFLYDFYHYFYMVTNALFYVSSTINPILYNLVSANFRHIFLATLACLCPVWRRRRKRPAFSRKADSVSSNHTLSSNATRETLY
Series [9] addresses Substance-K receptor (Homo sapiens) (UniProt P21452). Kind of series: Activity against NK2/H in the Eurofins SafetyScreen44 (BI) by Radioactive Assay (Old_Cerep_25). The note with it: Compound concentration 10.0 uM.
Series [10] addresses D(1B) dopamine receptor (Homo sapiens) (UniProt P21918). Nature of the series: Activity against D5/H in the Eurofins SafetyScreen44 (BI) by Radioactive Assay (Old_Cerep_17). As to conditions: Compound concentration 10.0 uM.
The target of series [11] is Elastase, neutrophil expressed (Cricetulus griseus, UniProt A0A3L7HHY4). Nature of the series: ELANE inhibitor assay (hamster).
Sequence of Elastase, neutrophil expressed (A0A3L7HHY4 whole entry): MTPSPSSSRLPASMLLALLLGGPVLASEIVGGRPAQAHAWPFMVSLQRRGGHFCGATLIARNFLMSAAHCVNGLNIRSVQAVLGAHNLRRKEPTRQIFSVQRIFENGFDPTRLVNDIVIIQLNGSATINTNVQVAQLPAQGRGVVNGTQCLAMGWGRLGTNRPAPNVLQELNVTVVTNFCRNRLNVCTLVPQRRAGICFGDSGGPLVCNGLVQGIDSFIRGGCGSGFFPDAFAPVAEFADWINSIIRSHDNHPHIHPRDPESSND
For series [12], the target named is Peroxisome proliferator-activated receptor gamma (Homo sapiens) (UniProt P37231). Kind of series: Agonist activity in the Eurofins SafetyScreen44 (BI) against PPARG/H AG by Radioactive Assay (Old_Cerep_35). The note with it: Compound concentration 10.0 uM.
Sequence of Peroxisome proliferator-activated receptor gamma (Homo sapiens) (P37231 whole entry): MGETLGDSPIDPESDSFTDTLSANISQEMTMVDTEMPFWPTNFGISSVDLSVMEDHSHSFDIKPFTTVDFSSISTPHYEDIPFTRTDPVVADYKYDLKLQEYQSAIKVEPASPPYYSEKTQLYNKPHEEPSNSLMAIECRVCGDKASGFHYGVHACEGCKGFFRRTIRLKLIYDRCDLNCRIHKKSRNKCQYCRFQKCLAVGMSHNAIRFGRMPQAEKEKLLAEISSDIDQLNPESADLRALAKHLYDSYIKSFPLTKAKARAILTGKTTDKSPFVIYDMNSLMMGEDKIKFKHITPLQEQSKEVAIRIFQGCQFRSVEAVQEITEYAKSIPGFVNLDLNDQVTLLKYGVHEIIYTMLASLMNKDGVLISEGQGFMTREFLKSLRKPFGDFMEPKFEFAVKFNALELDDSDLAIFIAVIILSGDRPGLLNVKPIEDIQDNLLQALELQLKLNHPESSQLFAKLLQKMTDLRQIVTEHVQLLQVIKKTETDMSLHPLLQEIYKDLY
The target of series [13] is Tumor necrosis factor receptor superfamily member 1A (Homo sapiens) (UniProt P19438). Nature of the series: TNF-alpha Eurofins-Cerep binding assay. The note with it: Compound concentration 10.0 uM.
The target of series [14] is Type-2 angiotensin II receptor (Homo sapiens) (UniProt P50052). Nature of the series: Activity against AT2/H in the Eurofins SafetyScreen44 (BI) by Radioactive Assay (Old_Cerep_7).
Sequence of Type-2 angiotensin II receptor (Homo sapiens) (P50052 whole entry): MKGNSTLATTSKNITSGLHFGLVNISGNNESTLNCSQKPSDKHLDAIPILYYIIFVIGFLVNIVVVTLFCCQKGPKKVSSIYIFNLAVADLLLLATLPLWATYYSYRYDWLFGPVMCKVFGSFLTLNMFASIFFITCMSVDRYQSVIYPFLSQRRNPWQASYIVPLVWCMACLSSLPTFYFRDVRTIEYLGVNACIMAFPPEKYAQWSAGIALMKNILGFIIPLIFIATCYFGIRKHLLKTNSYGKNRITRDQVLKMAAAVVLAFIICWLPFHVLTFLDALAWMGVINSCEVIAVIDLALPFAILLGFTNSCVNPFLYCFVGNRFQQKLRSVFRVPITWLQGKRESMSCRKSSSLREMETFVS
For series [15], the target named is Neuromedin-K receptor (Homo sapiens) (UniProt P29371). Kind of series: Agonist activity in the Eurofins SafetyScreen44 (BI) against NK3/H by Radioligand Binding (Old_Cerep_26). The note with it: Compound concentration 10.0 uM.
Series [16] has as its target Substance-P receptor (Homo sapiens) (UniProt P25103). Nature of the series: NK1 Eurofins-Cerep binding assay. The note with it: Compound concentration 10.0 uM.
Series [17] deals with Gastrin/cholecystokinin type B receptor (Homo sapiens) (UniProt P32239). Kind of series: Activity against CCKB/H in the Eurofins SafetyScreen44 (BI) by Radioactive Assay (Old_Cerep_13). The note with it: Compound concentration 10.0 uM.
Sequence of Gastrin/cholecystokinin type B receptor (Homo sapiens) (P32239 whole entry): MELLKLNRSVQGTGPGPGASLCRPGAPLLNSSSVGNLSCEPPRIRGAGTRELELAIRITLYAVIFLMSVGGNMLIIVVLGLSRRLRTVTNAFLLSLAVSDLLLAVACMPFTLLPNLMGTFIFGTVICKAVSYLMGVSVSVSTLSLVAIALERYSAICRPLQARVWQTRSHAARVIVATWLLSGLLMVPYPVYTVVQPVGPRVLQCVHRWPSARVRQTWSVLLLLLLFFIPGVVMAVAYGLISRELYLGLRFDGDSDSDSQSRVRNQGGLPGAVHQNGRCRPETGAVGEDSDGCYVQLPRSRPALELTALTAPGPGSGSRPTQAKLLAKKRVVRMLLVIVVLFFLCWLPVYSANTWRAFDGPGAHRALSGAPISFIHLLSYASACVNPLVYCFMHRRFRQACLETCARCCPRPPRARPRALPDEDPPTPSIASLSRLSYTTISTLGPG
Series [18] addresses P2Y purinoceptor 1 (Rattus norvegicus) (UniProt P49651). Kind of series: Activity against P2Y/RA in the Eurofins SafetyScreen44 (BI) by Radioactive Assay (Old_Cerep_30). The note with it: Compound concentration 10.0 uM.
Series [19] deals with Melanocortin receptor 4 (Homo sapiens) (UniProt P32245). Kind of series: MC4 Eurofins-Cerep binding assay. Details: ligand concentration 0.05 nM. As to conditions: Compound concentration 10.0 uM.
Sequence of Melanocortin receptor 4 (Homo sapiens) (P32245 whole entry): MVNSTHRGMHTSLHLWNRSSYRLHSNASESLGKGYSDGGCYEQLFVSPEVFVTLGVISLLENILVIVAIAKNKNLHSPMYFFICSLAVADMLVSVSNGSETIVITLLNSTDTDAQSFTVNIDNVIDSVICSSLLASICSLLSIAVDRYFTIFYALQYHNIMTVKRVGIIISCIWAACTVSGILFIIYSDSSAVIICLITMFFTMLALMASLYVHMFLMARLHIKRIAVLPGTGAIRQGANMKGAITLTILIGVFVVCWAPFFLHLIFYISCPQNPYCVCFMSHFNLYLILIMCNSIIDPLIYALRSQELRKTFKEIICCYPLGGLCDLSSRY
For series [20], the target named is Small conductance calcium-activated potassium channel protein 1 (Rattus norvegicus) (UniProt P70606). Kind of series: Inhibitor of K+/CA+/R in the Eurofins SafetyScreen44 (BI) by Radioactive Assay (Old_Cerep_23). The note with it: Compound concentration 10.0 uM.
Series [21] has as its target Adenosine receptor A3 (Homo sapiens) (UniProt P0DMS8). Nature of the series: A3 Eurofins-Cerep binding assay. Details: ligand concentration 0.15 nM.
For series [22], the target named is 5-hydroxytryptamine receptor 7 (Homo sapiens) (UniProt P34969). Kind of series: 5-HT7 Eurofins-Cerep binding assay. Details: ligand concentration 4 nM. As to conditions: Compound concentration 10.0 uM.
Series [23] addresses Prostaglandin E2 receptor EP2 subtype (Homo sapiens) (UniProt P43116). Nature of the series: Agonist activity in the Eurofins SafetyScreen44 (BI) against EP2(H) by Scintillation counting (Old_Cerep_18). The note with it: Compound concentration 10.0 uM.
For series [24], the target named is 5-hydroxytryptamine receptor 1B (Rattus norvegicus) (UniProt P28564). Nature of the series: Inhibitor of 5HT1B/R in the Eurofins SafetyScreen44 (BI) by Radioactive Assay (Old_Cerep_1). The note with it: Compound concentration 10.0 uM.
Series [25] concerns the target hERG (KCNH2) (Homo sapiens, UniProt Q12809). Nature of the series: Inhibitor of HERG_DOFETILIDE in the Eurofins Cerep SafetyScreen44 (BI) by Scintillation counting (Cerep_4094). Details: scale not given: the % may be the effect or the level left. As to conditions: probe [3H]dofetilide, compound concentration 10 uM, read-out: % Ctrl.
Series [26] concerns the target MAO-A (amine oxidase [flavin-containing] A) (Homo sapiens, UniProt P21397). Nature of the series: Agonist activity in the Eurofins Cerep SafetyScreen44 (BI) against MAO-A_ANTAG by Scintillation counting (Cerep_443). Details: scale not given: the % may be the effect or the level left. As to conditions: rat; compound concentration 10 uM; target entry is the homologue from another species; read-out: % Ctrl.

Series [27] deals with cGMP-inhibited 3',5'-cyclic phosphodiesterase 3A (Homo sapiens) (UniProt Q14432). Kind of series: Inhibitor of PDE3A in the Eurofins Cerep SafetyScreen44 (BI) by HTRF-homogeneous time resolved fluoresce (Cerep_4072). As to conditions: Compound concentration 10.0 uM.
The target of series [28] is Alpha-2A adrenergic receptor (Homo sapiens) (UniProt P08913). Nature of the series: Inhibitor of ALPHA2A/HU in the Eurofins Cerep SafetyScreen44 (BI) by Radioactive Assay (Cerep_13). The note with it: Compound concentration 10.0 uM.
For series [29], the target named is Cannabinoid receptor 2 (Homo sapiens) (UniProt P34972). Kind of series: Activity against CB2/PERIPH/H in the Eurofins Cerep SafetyScreen44 (BI) by Radioactive Assay (Cerep_37). As to conditions: Compound concentration 10.0 uM.
Series [30] deals with 5-hydroxytryptamine receptor 1B (Homo sapiens) (UniProt P28222). Kind of series: 5-HT1B Eurofins-Cerep binding assay. Details: ligand concentration 1 nM. As to conditions: Compound concentration 10.0 uM.
For series [31], the target named is Glutamate NMDA receptor (Rattus norvegicus) (UniProt P35439+Q00959+Q00960+Q00961+Q62645+Q8VHN2+Q9R1M7). Kind of series: Inhibitor of NMDA/R in the Eurofins Cerep SafetyScreen44 (BI) by Radioactive Assay (Cerep_66). The note with it: Compound concentration 10.0 uM. The format is protein-complex assay.
Series [32] has as its target Alpha-1A adrenergic receptor (Homo sapiens) (UniProt P35348). Kind of series: Agonist activity in the Eurofins Cerep SafetyScreen44 (BI) against ALPHA1AH_ANTAG by Scintillation counting (Cerep_2338). As to conditions: Compound concentration 10.0 uM.

Active and inactive are the calls of the source. The calls are words filed in the database; no cut-off is given here.

Sequence of Adenosine receptor A3 (Homo sapiens) (P0DMS8 whole entry): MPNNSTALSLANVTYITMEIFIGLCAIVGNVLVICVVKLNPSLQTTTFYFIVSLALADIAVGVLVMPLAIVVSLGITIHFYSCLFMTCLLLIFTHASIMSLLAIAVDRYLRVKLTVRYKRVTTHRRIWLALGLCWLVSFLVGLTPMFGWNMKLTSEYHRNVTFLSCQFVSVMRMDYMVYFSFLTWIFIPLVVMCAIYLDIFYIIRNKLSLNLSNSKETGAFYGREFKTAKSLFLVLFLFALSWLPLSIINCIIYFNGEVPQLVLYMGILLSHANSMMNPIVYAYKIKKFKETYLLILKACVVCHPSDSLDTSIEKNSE
Sequence of Prostaglandin E2 receptor EP2 subtype (Homo sapiens) (P43116 whole entry): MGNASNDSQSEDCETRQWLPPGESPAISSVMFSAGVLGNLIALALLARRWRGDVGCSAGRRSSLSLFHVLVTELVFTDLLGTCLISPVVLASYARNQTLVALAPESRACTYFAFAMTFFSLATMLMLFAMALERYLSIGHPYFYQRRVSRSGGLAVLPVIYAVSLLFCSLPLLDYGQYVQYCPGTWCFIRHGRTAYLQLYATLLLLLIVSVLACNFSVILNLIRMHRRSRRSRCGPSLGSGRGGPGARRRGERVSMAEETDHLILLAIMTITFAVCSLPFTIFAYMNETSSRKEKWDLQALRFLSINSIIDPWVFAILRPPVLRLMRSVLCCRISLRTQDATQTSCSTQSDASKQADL
Sequence of Substance-P receptor (Homo sapiens) (P25103 whole entry): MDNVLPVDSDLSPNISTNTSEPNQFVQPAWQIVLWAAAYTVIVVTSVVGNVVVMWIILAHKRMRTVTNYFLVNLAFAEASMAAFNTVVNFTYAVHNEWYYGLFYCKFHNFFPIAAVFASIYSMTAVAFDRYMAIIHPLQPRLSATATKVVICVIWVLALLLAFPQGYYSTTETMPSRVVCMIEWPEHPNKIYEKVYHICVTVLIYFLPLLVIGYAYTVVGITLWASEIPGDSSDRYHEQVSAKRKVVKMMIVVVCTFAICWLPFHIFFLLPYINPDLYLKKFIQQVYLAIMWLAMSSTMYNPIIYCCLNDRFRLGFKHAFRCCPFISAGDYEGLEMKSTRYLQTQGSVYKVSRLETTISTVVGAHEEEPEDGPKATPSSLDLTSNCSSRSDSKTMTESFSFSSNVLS
Sequence of D(1B) dopamine receptor (Homo sapiens) (P21918 whole entry): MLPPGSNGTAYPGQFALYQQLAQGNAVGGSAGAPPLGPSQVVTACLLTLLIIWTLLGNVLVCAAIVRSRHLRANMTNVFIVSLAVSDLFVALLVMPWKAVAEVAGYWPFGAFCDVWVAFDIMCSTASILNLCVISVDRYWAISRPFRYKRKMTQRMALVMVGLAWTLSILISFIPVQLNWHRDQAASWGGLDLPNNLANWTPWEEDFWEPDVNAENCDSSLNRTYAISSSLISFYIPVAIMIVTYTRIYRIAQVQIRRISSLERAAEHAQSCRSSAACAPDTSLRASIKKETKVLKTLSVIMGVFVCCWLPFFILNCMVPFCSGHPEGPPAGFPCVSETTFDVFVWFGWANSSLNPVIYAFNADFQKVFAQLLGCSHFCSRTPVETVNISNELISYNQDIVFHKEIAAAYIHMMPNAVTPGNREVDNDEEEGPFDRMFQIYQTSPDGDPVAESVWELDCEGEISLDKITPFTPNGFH
Sequence of 5-hydroxytryptamine receptor 5A (Homo sapiens) (P47898 whole entry): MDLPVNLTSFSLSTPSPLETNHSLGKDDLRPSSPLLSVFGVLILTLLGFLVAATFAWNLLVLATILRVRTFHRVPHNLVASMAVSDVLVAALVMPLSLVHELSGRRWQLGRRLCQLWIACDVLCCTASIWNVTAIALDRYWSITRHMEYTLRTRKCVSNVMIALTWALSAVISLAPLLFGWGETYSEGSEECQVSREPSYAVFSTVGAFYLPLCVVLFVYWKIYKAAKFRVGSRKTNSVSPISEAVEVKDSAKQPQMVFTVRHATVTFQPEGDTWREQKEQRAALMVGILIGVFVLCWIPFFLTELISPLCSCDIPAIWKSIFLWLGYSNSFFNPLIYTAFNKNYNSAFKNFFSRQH

Usually IC50 stands for the concentration that inhibits the measured activity by half. As for `CC(C)(O)CNC(=O)N1C(=O)N(c2cccc(C(F)(F)F)c2)C2=C(C(=O)CC2)[C@H]1c1ccc(C#N)cc1`, the residual activity in series [1] is 98%; in series [3], 108%; in series [4] (Compound concentration 10.0 uM), 93%; in series [4] (Compound concentration 30.0 uM) it was 98%; in series [5] it was 103%; in series [6] (Compound concentration 10.0 uM), 108%. Besides, the residual activity is 113% in series [6] (Compound concentration 30.0 uM); 122% in [7]; 114% in series [8]; 103% in series [9]; 103% in series [10]; 111% in series [12]. The residual activity in series [13] is 115%; in series [14] (Compound concentration 10.0 uM) it was 92%; in series [14] (Compound concentration 30.0 uM), 114%; in [15], 102%; in series [16], 115%; in [17] it was 106%. For the same molecule, the residual activity in series [18] is 88%; in [19], 92%; in series [20], 97%; in series [21] (Compound concentration 10.0 uM), 92%; in series [21] (Compound concentration 30.0 uM) it was 80%; in [22], 102%. For the same molecule, the residual activity in series [23] was 93%; in series [24], 136%. Further, the IC50 in series [2] is > 10 µM (not active); in [11] it was 0.004 µM (active).
Regarding `CC(C)(O)CNC(=O)N1C(=O)N(c2cccc(C(F)(F)F)c2)C2=C(C(=O)CC2)[C@@H]1c1ccc(C#N)cc1`, the values for the activity at 10 µM in [25] and in series [26] were 96% (not active) and 101% (not active), respectively. Moreover, the residual activity in series [27] was 97%; in series [28], 98%; in series [29], 83%; in series [30] it was 86%; in [31], 96%; in series [32], 102%.
